≈ marks a conversion by molar mass, not a printed value. Where two headings read alike, the source gives them in different places. Marks after values point to notes of the source that are not given here.
Legend:
[1] = system: H37Rv (katG^del); assay: microbe, parasite or virus in culture; assay type: cell-based; conditions: Mycobacterium tuberculosis, isoniazid mono-resistant strain
[2] = system: H37Rv (rpoB^S450L); assay type: cell-based, Mycobacterium tuberculosis
[3] = system: H37Rv (gyrA^D94K); assay type: cell-based, Mycobacterium tuberculosis
[4] = system: H37Rv (gyrA^D94K); conditions: cited from earlier work
[5] = system: H37Rv (rpoB^S450L); conditions: cited from earlier work
[6] = system: M. tuberculosis strain H37Rv; assay type: cell-based, Mycobacterium tuberculosis; conditions: 2× the MIC

| SMILES | MIC [1] [µM] | MIC (µM) H37Rv (rpoB^S450L) [2] [µM] | MIC (µM) H37Rv (gyrA^D94K) [3] [µM] | MIC (µM) H37Rv (gyrA^D94K) [4] | MIC (µM) H37Rv (rpoB^S450L) [5] | FoR (order of magnitude stated in text) [6] |
| --- | --- | --- | --- | --- | --- | --- |
| CO[C@H]1/C=C/O[C@@]2(C)Oc3c(C)c(O)c4c(O)c(c(/C=N/N5CCN(C)CC5)c(O)c4c3C2=O)NC(=O)/C(C)=C\C=C\[C@H](C)[C@H](O)[C@@H](C)[C@@H](O)[C@@H](C)[C@H](OC(C)=O)[C@@H]1C [Rifampin, reference compound] | ≤ 0.004 | >1 | ≤0.004 | – | – | – |
| C=C(C)[C@@H]1CC[C@]2(C(=O)NC(CO)Cc3ccccc3)CC[C@]3(C)[C@H](CC[C@@H]4[C@@]5(C)CCCNC(C)(C)[C@@H]5CC[C@]43C)[C@@H]12 (some centres unmarked) [Compound 8] | 4 (≈ 2.36 µg/mL) | 4 (≈ 2.36 µg/mL) | 4 (≈ 2.36 µg/mL) | – | – | – |
| CC1(C)CCC23CCC4(C)C(CCC5C6(C)CCCNC(C)(C)C6CCC54C)C2C1OC3 (centres unmarked) [Compound 17] | 8 (≈ 3.53 µg/mL) | 8 (≈ 3.53 µg/mL) | 16 (≈ 7.07 µg/mL) | – | – | – |
| C=C(CN=[N+]=[N-])[C@@H]1CC[C@]2(COC(C)=O)CC[C@]3(C)[C@H](CC[C@@H]4[C@@]5(C)CCCNC(C)(C)[C@@H]5CC[C@]43C)[C@@H]12 [Compound 15] | 32 (≈ 16.8 µg/mL) | >32 | >32 | – | – | – |
| C=C(C)[C@@H]1CC[C@]2(COC(C)=O)CC[C@]3(C)[C@H](CC[C@@H]4[C@@]5(C)CCCN(C(=O)c6cccnc6)C(C)(C)[C@@H]5CC[C@]43C)[C@@H]12 [Compound 12] | – | 32 (≈ 18.8 µg/mL) | >32 | – | – | – |
| C=C(C)[C@@H]1CC[C@]2(CN)CC[C@]3(C)[C@H](CC[C@@H]4[C@@]5(C)CCCNC(C)(C)[C@@H]5CC[C@]43C)[C@@H]12 [Compound 3] | 4 (≈ 1.76 µg/mL) | 4 (≈ 1.76 µg/mL) | 8 (≈ 3.53 µg/mL) | – | – | – |
| C=C(C)[C@@H]1CC[C@]2(CO)CC[C@]3(C)[C@H](CC[C@@H]4[C@@]5(C)CCCNC(C)(C)[C@@H]5CC[C@]43C)[C@@H]12 [Compound 1, azepanobetulin] | – | – | – | 4 * µM | 4 * µM | 10^−6 |
| C=C(C)[C@@H]1CC[C@]2(C)CC[C@]3(C)[C@H](CC[C@@H]4[C@@]5(C)CCCNC(C)(C)[C@@H]5CC[C@]43C)[C@@H]12 [Compound 2, azepano-lupeol] | 4 (≈ 1.7 µg/mL) | 4 (≈ 1.7 µg/mL) | 4 (≈ 1.7 µg/mL) | – | – | – |
| NNC(=O)c1ccncc1 [Isoniazid, reference compound] | > 2 | 0.06 (≈ 0.00823 µg/mL) | 0.06 (≈ 0.00823 µg/mL) | – | – | 10^−4 |
| O=[N+]([O-])c1cn2c(n1)OC[C@@H](OCc1ccc(OC(F)(F)F)cc1)C2 [Pretomanid, reference compound] | 0.06 (≈ 0.0216 µg/mL) | 0.06 (≈ 0.0216 µg/mL) | 0.125 (≈ 0.0449 µg/mL) | – | – | – |
| C=C(C)[C@@H]1CC[C@]2(COS(=O)(=O)c3ccc(C)cc3)CC[C@]3(C)[C@H](CC[C@@H]4[C@@]5(C)CCCNC(C)(C)[C@@H]5CC[C@]43C)[C@@H]12 [Compound 6] | 4 (≈ 2.38 µg/mL) | 4 (≈ 2.38 µg/mL) | 4 (≈ 2.38 µg/mL) | – | – | – |
| C=C(C)[C@@H]1CC[C@]2(C(=O)N3CCN(C)CC3)CC[C@]3(C)[C@H](CC[C@@H]4[C@@]5(C)CCCNC(C)(C)[C@@H]5CC[C@]43C)[C@@H]12 [Compound 9] | 1 (≈ 0.538 µg/mL) | 2 (≈ 1.08 µg/mL) | 2 (≈ 1.08 µg/mL) | – | – | – |
| C#CCNC(=O)[C@]12CC[C@@H](C(=C)C)[C@@H]1[C@H]1CC[C@@H]3[C@@]4(C)CCCNC(C)(C)[C@@H]4CC[C@@]3(C)[C@]1(C)CC2 [Compound 20, 17-(Propargyl)-3-deoxo-3a-homo-3a-aza-lup-20(29)-en-carboxamide] | 4 (≈ 1.97 µg/mL) | 8 (≈ 3.94 µg/mL) | 4 (≈ 1.97 µg/mL) | – | – | – |
| C=C(CBr)[C@@H]1CC[C@]2(COC(C)=O)CC[C@]3(C)[C@H](CC[C@@H]4[C@@]5(C)CCCNC(C)(C)[C@@H]5CC[C@]43C)[C@@H]12 [Compound 14] | 16 (≈ 9 µg/mL) | >32 | >32 | – | – | – |
| CC(C)=C1CCC=C2CC[C@]3(C)[C@H](CC[C@@H]4[C@@]5(C)CCCNC(C)(C)[C@@H]5CC[C@]43C)[C@H]21 [Compound 18] | – | 16 (≈ 6.78 µg/mL) | 8 (≈ 3.39 µg/mL) | – | – | 10^−6 |
| C=C(C)[C@@H]1CC[C@]2(C(=O)NC3CCCCC3)CC[C@]3(C)[C@H](CC[C@@H]4[C@@]5(C)CCCNC(C)(C)[C@@H]5CC[C@]43C)[C@@H]12 [Compound 10] | 4 (≈ 2.15 µg/mL) | 4 (≈ 2.15 µg/mL) | 4 (≈ 2.15 µg/mL) | – | – | – |
| COc1c(N2C[C@@H]3CCCN[C@@H]3C2)c(F)cc2c(=O)c(C(=O)O)cn(C3CC3)c12 [Moxifloxacin, reference compound] | 0.03 (≈ 0.012 µg/mL) | 0.03 (≈ 0.012 µg/mL) | >2 | – | – | – |
| C=C(C)[C@@H]1CC[C@]2(C=NNC(=O)c3ccncc3)CC[C@]3(C)[C@H](CC[C@@H]4[C@@]5(C)CCCNC(C)(C)[C@@H]5CC[C@]43C)[C@@H]12 [Compound 7] | 8 (≈ 4.47 µg/mL) | 0.5 (≈ 0.279 µg/mL) | 0.5 (≈ 0.279 µg/mL) | – | – | – |
| C=C(C)[C@@H]1CC[C@]2(COC(C)=O)CC[C@]3(C)[C@H](CC[C@@H]4[C@@]5(C)CCCN(C(C)=O)C(C)(C)[C@@H]5CC[C@]43C)[C@@H]12 [Compound 11] | – | 4 (≈ 2.1 µg/mL) | 8 (≈ 4.21 µg/mL) | – | – | – |
| C=C(C)[C@@H]1CC[C@]2(COC(=O)c3cccnc3)CC[C@]3(C)[C@H](CC[C@@H]4[C@@]5(C)CCCNC(C)(C)[C@@H]5CC[C@]43C)[C@@H]12 [Compound 5] | 4 (≈ 2.19 µg/mL) | 8 (≈ 4.37 µg/mL) | 8 (≈ 4.37 µg/mL) | – | – | – |
| CC(=O)[C@@H]1CC[C@]2(COS(=O)(=O)c3ccc(C)cc3)CC[C@]3(C)[C@H](CC[C@@H]4[C@@]5(C)CCCNC(C)(C)[C@@H]5CC[C@]43C)[C@@H]12 [Compound 13] | 8 (≈ 4.78 µg/mL) | 8 (≈ 4.78 µg/mL) | 16 (≈ 9.57 µg/mL) | – | – | – |
| C=C(C)[C@@H]1CC[C@]2(COC(=O)c3ccccc3C(=O)O)CC[C@]3(C)[C@H](CC[C@@H]4[C@@]5(C)CCCNC(C)(C)[C@@H]5CC[C@]43C)[C@@H]12 [Compound 4] | 8 (≈ 4.72 µg/mL) | 8 (≈ 4.72 µg/mL) | 16 (≈ 9.44 µg/mL) | – | – | – |
